Assay results from PMC2776038 (Molecular cell, 2009).

Test system: XPD (Rad3) helicase
Test: single-molecule TIRF, Cy3 quenching by FeS cluster
Assay type: biochemical, Ferroplasma acidarmanus
Details: 3'-Cy3 ssDNA, 600 pM XPD, no RPA; 50 mM Tris-HCl pH 7.5, 3 mM MgCl2, 25 °C

A Km of 2.8 ± 1 µM was found for `Nc1ncnc2c1ncn2[C@@H]1O[C@H](COP(=O)(O)OP(=O)(O)OP(=O)(O)O)[C@@H](O)[C@H]1O` [ATP] in this work.
